Results: PubChem BioAssay AID256 (DTP/NCI, 2004)
Where “and” joins values, the source holds several entries; their conditions need not be identical. Equal entries are not always repeated. Inconclusive results and toxic doses are left out.

Tested on: CD2F1 mice, L1210 leukemia ip, survival T/C
Experiment: NCI In Vivo Anticancer Drug Screen. Data for tumor model L1210 Leukemia (intraperitoneal) in CD2F1 (CDF1) mice
Conditions: higher = longer survival
Outline: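 Transplantable tumor in mice; compound-treated vs vehicle-treated groups. Read-out = treated/control ratio of the measured endpoint.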

[1] = endpoint: mean survival time, dose: 12.5 mg/kg/injection, schedule: Q01DX009 (ip), vehicle: saline
[2] = endpoint: mean survival time, dose: 25.0 mg/kg/injection, schedule: Q01DX009 (ip), vehicle: saline
[3] = endpoint: mean survival time, dose: 50.0 mg/kg/injection, schedule: Q01DX009 (ip), vehicle: saline
[4] = endpoint: mean survival time, dose: 100.0 mg/kg/injection, schedule: Q01DX009 (ip), vehicle: saline
[5] = endpoint: mean survival time, dose: 100.0 mg/kg/injection, schedule: Q04DX003 (ip), vehicle: saline with Tween-80
[6] = endpoint: mean survival time, dose: 200.0 mg/kg/injection, schedule: Q04DX003 (ip), vehicle: saline with Tween-80
[7] = endpoint: mean survival time, dose: 400.0 mg/kg/injection, schedule: Q04DX003 (ip), vehicle: saline with Tween-80
[8] = endpoint: mean survival time, dose: 100.0 mg/kg/injection, schedule: Q01DX009 (ip), vehicle: saline with Tween-80
[9] = endpoint: mean survival time, dose: 200.0 mg/kg/injection, schedule: Q01DX009 (ip), vehicle: saline with Tween-80
[10] = endpoint: mean survival time, dose: 400.0 mg/kg/injection, schedule: Q01DX009 (ip), vehicle: saline with Tween-80

O=[N+]([O-])c1nccn1CC(O)CO (stereo not drawn)
T/C [1]: 102 % of control | T/C [2]: 105 % of control | T/C [3]: 102 % of control | T/C [4]: 101 % of control | T/C (endpoint: mean survival time, dose: 200.0 mg/kg/injection, schedule: Q01DX009 (ip), vehicle: saline): 102 % of control | T/C (endpoint: mean survival time, dose: 400.0 mg/kg/injection, schedule: Q01DX009 (ip), vehicle: saline): 103 % of control

CN1C2CCC1C(Br)C(=O)C2 (stereo not drawn)
T/C (endpoint: median survival time, dose: 25.0 mg/kg/injection, schedule: Q01DX009 (ip), vehicle: saline): 102 % of control | T/C (endpoint: median survival time, dose: 50.0 mg/kg/injection, schedule: Q01DX009 (ip), vehicle: saline): 105 % of control | T/C (endpoint: median survival time, dose: 100.0 mg/kg/injection, schedule: Q01DX009 (ip), vehicle: saline): 105 % of control | T/C (endpoint: median survival time, dose: 200.0 mg/kg/injection, schedule: Q01DX009 (ip), vehicle: saline): 101 % of control

NC(=O)CC(NC(=O)CCl)C(=O)O (stereo not drawn)
T/C [5]: 101 % of control | T/C [6]: 92 % of control | T/C [7]: 92 % of control

O.O=S(=O)(O)O.[NH-]C1CCCC1[NH-].[Pt+2] (stereo not drawn)
T/C (endpoint: mean survival time, dose: 0.5 mg/kg/injection, schedule: Q01DX009 (ip), vehicle: dextrose): 116 % of control and 120 % of control | T/C (endpoint: mean survival time, dose: 0.5 mg/kg/injection, schedule: Q04DX003 (ip), vehicle: dextrose): 102 % of control and 106 % of control | T/C (endpoint: mean survival time, dose: 1.0 mg/kg/injection, schedule: Q01DX001 (ip), vehicle: dextrose): 100 % of control and 104 % of control | T/C (endpoint: mean survival time, dose: 1.0 mg/kg/injection, schedule: Q04DX003 (ip), vehicle: dextrose): 116 % of control and 112 % of control | T/C (endpoint: mean survival time, dose: 2.0 mg/kg/injection, schedule: Q01DX009 (ip), vehicle: dextrose): 160 % of control | T/C (endpoint: mean survival time, dose: 2.0 mg/kg/injection, schedule: Q04DX003 (ip), vehicle: dextrose): 119 % of control | T/C (endpoint: mean survival time, dose: 4.0 mg/kg/injection, schedule: Q01DX009 (ip), vehicle: dextrose): 108 % of control | T/C (endpoint: mean survival time, dose: 4.0 mg/kg/injection, schedule: Q04DX003 (ip), vehicle: other): 165 % of control | T/C (endpoint: mean survival time, dose: 6.0 mg/kg/injection, schedule: Q01DX001 (ip), vehicle: dextrose): 151 % of control | T/C (endpoint: mean survival time, dose: 8.0 mg/kg/injection, schedule: Q04DX003 (ip), vehicle: dextrose): 160 % of control and 188 % of control | T/C (endpoint: mean survival time, dose: 10.0 mg/kg/injection, schedule: Q01DX001 (ip), vehicle: dextrose): 160 % of control | T/C (endpoint: mean survival time, dose: 16.0 mg/kg/injection, schedule: Q04DX003 (ip), vehicle: dextrose): 102 % of control

CN(CO)c1nc(N(C)CO)nc(N(C)CO)n1
T/C [1]: 106 % of control and 108 % of control | T/C [2]: 105 % of control and 108 % of control | T/C [3]: 118 % of control and 110 % of control | T/C [4]: 117 % of control

O=C(O)CSCC(=O)c1ccccc1
T/C [8]: 98 % of control | T/C [5]: 94 % of control | T/C [9]: 100 % of control | T/C [6]: 98 % of control | T/C [10]: 98 % of control | T/C [7]: 102 % of control

Clc1nc(Oc2ccccc2)nc(-c2cn(-c3ccccc3)c3ccccc23)n1
T/C (endpoint: mean survival time, dose: 100.0 mg/kg/injection, schedule: Q01DX001 (ip), vehicle: saline with Tween-80): 98 % of control | T/C [8]: 95 % of control | T/C [5]: 102 % of control | T/C (endpoint: mean survival time, dose: 200.0 mg/kg/injection, schedule: Q01DX001 (ip), vehicle: saline with Tween-80): 102 % of control | T/C [9]: 101 % of control | T/C [6]: 98 % of control | T/C (endpoint: mean survival time, dose: 400.0 mg/kg/injection, schedule: Q01DX001 (ip), vehicle: saline with Tween-80): 102 % of control | T/C [10]: 97 % of control | T/C [7]: 101 % of control

CCOC(=O)Nc1ccc(F)cc1
T/C (endpoint: mean survival time, dose: 100.0 mg/kg/injection, schedule: Q01DX009 (ip), vehicle: other): 98 % of control | T/C (endpoint: mean survival time, dose: 200.0 mg/kg/injection, schedule: Q01DX009 (ip), vehicle: other): 98 % of control | T/C (endpoint: mean survival time, dose: 400.0 mg/kg/injection, schedule: Q01DX009 (ip), vehicle: other): 107 % of control

NC(=O)c1c(F)c(F)c(Oc2c(F)c(F)c(Oc3c(F)c(F)c(C(N)=O)c(F)c3F)c(F)c2F)c(F)c1F
T/C (endpoint: mean survival time, dose: 12.5 mg/kg/injection, schedule: Q01DX009 (ip), vehicle: saline with Tween-80): 103 % of control | T/C (endpoint: mean survival time, dose: 12.5 mg/kg/injection, schedule: Q04DX003 (ip), vehicle: saline with Tween-80): 101 % of control | T/C (endpoint: mean survival time, dose: 25.0 mg/kg/injection, schedule: Q01DX009 (ip), vehicle: saline with Tween-80): 100 % of control | T/C (endpoint: mean survival time, dose: 25.0 mg/kg/injection, schedule: Q04DX003 (ip), vehicle: saline with Tween-80): 101 % of control | T/C (endpoint: mean survival time, dose: 50.0 mg/kg/injection, schedule: Q01DX009 (ip), vehicle: saline with Tween-80): 101 % of control | T/C (endpoint: mean survival time, dose: 50.0 mg/kg/injection, schedule: Q04DX003 (ip), vehicle: saline with Tween-80): 98 % of control
